What is called EC50 is the midpoint of the concentration-response curve.

Here are results for one compound from ChEMBL document CHEMBL6182880, “TCM theory-inspired discovery of DNJ-flavonoid conjugates as broad-spectrum anti-SARS-CoV-2 agents by primarily targeting ER-associated glycoprotein folding process” (Eur J Med Chem, 2025).

Holding throughout (type): functional, organism-based
For test [1], the system named is SARS-CoV-2. Nature of the test: Antiviral activity against SARS CoV-2 pseudovirus transfected in HEK293 cells harboring pLenti-GFP-Luc assessed as inhibition of viral entry into HeLa-ACE2 cells treated 1 to 6 hrs post-infection and measured after 48 hrs by luciferase assay. The conditions noted are these: Severe acute respiratory syndrome coronavirus 2.
The test system of test [2] is SARS-CoV-2. Nature of the test: Antiviral activity against SARS CoV-2 pseudovirus transfected in HEK293 cells harboring pLenti-GFP-Luc assessed as inhibition of viral packing process by luciferase assay. The conditions noted are these: Severe acute respiratory syndrome coronavirus 2; HeLa-ACE2; time 48.0 hrs.
Test [3] concerns SARS-CoV-2. Nature of the test: Antiviral activity against SARS CoV-2 pseudovirus transfected in HEK293 cells harboring pLenti-GFP-Luc assessed as inhibition of viral entry into HeLa-ACE2 cells treated for 12 hrs prior to media replacement and measured after 48 hrs by luciferase assay. The conditions noted are these: Severe acute respiratory syndrome coronavirus 2, HeLa-ACE2.
Test [4] relates to SARS-CoV-2. The test can be described thus: Antiviral activity against SARS CoV-2 pseudovirus transfected in HEK293 cells harboring pLenti-GFP-Luc assessed as inhibition of viral packing process treated from 12 to 48 hrs post-transfection by luciferase assay. The conditions noted are these: Severe acute respiratory syndrome coronavirus 2, HeLa-ACE2.
The subject of test [5] is SARS-CoV-2. The test can be described thus: Antiviral activity against SARS CoV-2 pseudovirus transfected in HEK293 cells harboring pLenti-GFP-Luc assessed as inhibition of viral entry into HeLa-ACE2 cells incubated with cells for 1 to 2 hrs prior to viral infection and measured after 48 hrs by luciferase assay. The conditions noted are these: Severe acute respiratory syndrome coronavirus 2, HeLa-ACE2.

Turning to `O=c1cc(-c2ccc(O)c(O)c2)oc2cc(O)cc(OCCCCCCCCCCN3C[C@H](O)[C@@H](O)[C@H](O)[C@H]3CO)c12`, the inhibition result is “Not active; Delay Of Time Of Addition Exerted A Time-Dependent Decrease In Viral Entry Inhibition” with SARS-CoV-2 [1] and “Time-dependent-effect” with SARS-CoV-2 [2]. The concentration giving a half-maximal response (EC50) in the test with SARS-CoV-2 [3] stood at 5.13 µM; in the test on SARS-CoV-2 [4], 7.52 µM; in the test with SARS-CoV-2 [5] it was 7.52 µM.
